The results in this text go back to ChEMBL document CHEMBL4184181, “Evaluation of alkylating pyrrole-imidazole polyamide conjugates by a novel method for high-throughput sequencer” (Bioorg Med Chem, 2018).

The test system of one test is A549. Nature of the test: Cytotoxicity against human A549 cells after 48 hrs by WST8 assay. The test is classed as functional, cell-based. As to conditions: A549, 48 h. (Tetrazolium assays rely on reduction of a dye to a coloured formazan, in cell work by metabolically active cells.)
The species entered for test [1] is Bos taurus. Nature of the test: Alkylating activity at ACCTCAA sequence of calf thymus DNA assessed as enrichment ratio by measuring ratio of sample to input control after 1 hr by MERMADE method. The test is classed as functional.
Test [2] is filed under the species Bos taurus. Nature of the test: Alkylating activity at ACCTCTA sequence of calf thymus DNA assessed as enrichment ratio by measuring ratio of sample to input control after 1 hr by MERMADE method. The test is classed as functional.
The species entered for test [3] is Bos taurus. Description: Alkylating activity at ACCACTA sequence of calf thymus DNA assessed as enrichment ratio by measuring ratio of sample to input control after 1 hr by MERMADE method. The test is classed as functional.
Test [4] is filed under the species Bos taurus. Nature of the test: Alkylating activity at ATCACTA sequence of calf thymus DNA assessed as enrichment ratio by measuring ratio of sample to input control after 1 hr by MERMADE method. The test is classed as functional.
The species entered for test [5] is Bos taurus. Description: Alkylating activity at CCTCTAG sequence of calf thymus DNA assessed as enrichment ratio by measuring ratio of sample to input control after 1 hr by MERMADE method. The test is classed as functional.
Test [6] is filed under the species Bos taurus. Description: Alkylating activity at TAGTGAA sequence of calf thymus DNA assessed as enrichment ratio by measuring ratio of sample to input control after 1 hr by MERMADE method. The test is classed as functional.
Test [7] is filed under the species Bos taurus. Nature of the test: Alkylating activity at CCACTAG sequence of calf thymus DNA assessed as enrichment ratio by measuring ratio of sample to input control after 1 hr by MERMADE method. The test is classed as functional.
For test [8], the species on record is Bos taurus. Nature of the test: Alkylating activity at ACTAGTG sequence of calf thymus DNA assessed as enrichment ratio by measuring ratio of sample to input control after 1 hr by MERMADE method. The test is classed as functional.
Test [9] is filed under the species Bos taurus. Nature of the test: Alkylating activity at CTAGTGA sequence of calf thymus DNA assessed as enrichment ratio by measuring ratio of sample to input control after 1 hr by MERMADE method. The test is classed as functional.
For test [10], the species on record is Bos taurus. Description: Alkylating activity at CCTCTAA sequence of calf thymus DNA assessed as enrichment ratio by measuring ratio of sample to input control after 1 hr by MERMADE method. The test is classed as functional.
For test [11], the species on record is Bos taurus. Description: Alkylating activity at CTCTAGA sequence of calf thymus DNA assessed as enrichment ratio by measuring ratio of sample to input control after 1 hr by MERMADE method. The test is classed as functional.
Test [12] is filed under the species Bos taurus. Nature of the test: Alkylating activity at CACTAGA sequence of calf thymus DNA assessed as enrichment ratio by measuring ratio of sample to input control after 1 hr by MERMADE method. The test is classed as functional.
For test [13], the species on record is Bos taurus. Nature of the test: Alkylating activity at TACACTA sequence of calf thymus DNA assessed as enrichment ratio by measuring ratio of sample to input control after 1 hr by MERMADE method. The test is classed as functional.
The species entered for test [14] is Bos taurus. Nature of the test: Alkylating activity at TCACTAA sequence of calf thymus DNA assessed as enrichment ratio by measuring ratio of sample to input control after 1 hr by MERMADE method. The test is classed as functional.
Test [15] is filed under the species Bos taurus. Description: Alkylating activity at ATCTCTA sequence of calf thymus DNA assessed as enrichment ratio by measuring ratio of sample to input control after 1 hr by MERMADE method. The test is classed as functional.
For test [16], the species on record is Bos taurus. Description: Alkylating activity at AGTGGTA sequence of calf thymus DNA assessed as enrichment ratio by measuring ratio of sample to input control after 1 hr by MERMADE method. The test is classed as functional.
Test [17] is filed under the species Bos taurus. Nature of the test: Alkylating activity at CCTCTAC sequence of calf thymus DNA assessed as enrichment ratio by measuring ratio of sample to input control after 1 hr by MERMADE method. The test is classed as functional.
The species entered for test [18] is Bos taurus. Nature of the test: Alkylating activity at ACCATTA sequence of calf thymus DNA assessed as enrichment ratio by measuring ratio of sample to input control after 1 hr by MERMADE method. The test is classed as functional.
The species named for test [19] is Bos taurus. Nature of the test: Alkylating activity at CCTCAAG sequence of calf thymus DNA assessed as enrichment ratio by measuring ratio of sample to input control after 1 hr by MERMADE method. The test is classed as functional.
Test [20] is filed under the species Bos taurus. Nature of the test: Alkylating activity at CCACTAA sequence of calf thymus DNA assessed as enrichment ratio by measuring ratio of sample to input control after 1 hr by MERMADE method. The test is classed as functional.
Test [21] is filed under the species Bos taurus. Nature of the test: Alkylating activity at calf thymus DNA containing adenine at seventh position of motif by MR method. The test is classed as functional.
The species named for test [22] is Bos taurus. Nature of the test: Alkylating activity at ACCTCAC sequence of calf thymus DNA assessed as enrichment ratio by measuring ratio of sample to input control after 1 hr by MERMADE method. The test is classed as functional.
The species entered for test [23] is Bos taurus. Description: Alkylating activity at CCTCACC sequence of calf thymus DNA assessed as enrichment ratio by measuring ratio of sample to input control after 1 hr by MERMADE method. The test is classed as functional.
Test [24] is filed under the species Bos taurus. Nature of the test: Alkylating activity at TACCTCA sequence of calf thymus DNA assessed as enrichment ratio by measuring ratio of sample to input control after 1 hr by MERMADE method. The test is classed as functional.
The species named for test [25] is Bos taurus. Description: Alkylating activity at CACCTCA sequence of calf thymus DNA assessed as enrichment ratio by measuring ratio of sample to input control after 1 hr by MERMADE method. The test is classed as functional.
Test [26] is filed under the species Bos taurus. Description: Alkylating activity at CCACCTC sequence of calf thymus DNA assessed as enrichment ratio by measuring ratio of sample to input control after 1 hr by MERMADE method. The test is classed as functional.
For test [27], the species on record is Bos taurus. Nature of the test: Alkylating activity at AGGTGAG sequence of calf thymus DNA assessed as enrichment ratio by measuring ratio of sample to input control after 1 hr by MERMADE method. The test is classed as functional.
The species entered for test [28] is Bos taurus. Description: Alkylating activity at GAGGTTA sequence of calf thymus DNA assessed as enrichment ratio by measuring ratio of sample to input control after 1 hr by MERMADE method. The test is classed as functional.
For test [29], the species on record is Bos taurus. Nature of the test: Alkylating activity at ACCTCAT sequence of calf thymus DNA assessed as enrichment ratio by measuring ratio of sample to input control after 1 hr by MERMADE method. The test is classed as functional.
For test [30], the species on record is Bos taurus. Description: Alkylating activity at CTACCTC sequence of calf thymus DNA assessed as enrichment ratio by measuring ratio of sample to input control after 1 hr by MERMADE method. The test is classed as functional.
The species entered for test [31] is Bos taurus. Nature of the test: Alkylating activity at GAGGTGA sequence of calf thymus DNA assessed as enrichment ratio by measuring ratio of sample to input control after 1 hr by MERMADE method. The test is classed as functional.
For test [32], the species on record is Bos taurus. Nature of the test: Alkylating activity at GGTGAGA sequence of calf thymus DNA assessed as enrichment ratio by measuring ratio of sample to input control after 1 hr by MERMADE method. The test is classed as functional.
The species named for test [33] is Bos taurus. Description: Alkylating activity at CTCCACC sequence of calf thymus DNA assessed as enrichment ratio by measuring ratio of sample to input control after 1 hr by MERMADE method. The test is classed as functional.
Test [34] is filed under the species Bos taurus. Description: Alkylating activity at ACCTCAG sequence of calf thymus DNA assessed as enrichment ratio by measuring ratio of sample to input control after 1 hr by MERMADE method. The test is classed as functional.
Test [35] is filed under the species Bos taurus. Nature of the test: Alkylating activity at CCACTCC sequence of calf thymus DNA assessed as enrichment ratio by measuring ratio of sample to input control after 1 hr by MERMADE method. The test is classed as functional.
Test [36] is filed under the species Bos taurus. Description: Alkylating activity at ATACCTC sequence of calf thymus DNA assessed as enrichment ratio by measuring ratio of sample to input control after 1 hr by MERMADE method. The test is classed as functional.
The species named for test [37] is Bos taurus. Description: Alkylating activity at GTGAGGA sequence of calf thymus DNA assessed as enrichment ratio by measuring ratio of sample to input control after 1 hr by MERMADE method. The test is classed as functional.
For test [38], the species on record is Bos taurus. Nature of the test: Alkylating activity at CGACCTC sequence of calf thymus DNA assessed as enrichment ratio by measuring ratio of sample to input control after 1 hr by MERMADE method. The test is classed as functional.
The species entered for test [39] is Bos taurus. Nature of the test: Alkylating activity at ACTCCTC sequence of calf thymus DNA assessed as enrichment ratio by measuring ratio of sample to input control after 1 hr by MERMADE method. The test is classed as functional.

Structures are written as SMILES. Calls of active or inactive are those of the source. The rule behind the calls is not given here.

Usually IC50 stands for the concentration at which inhibition is half-maximal. Read a high IC50 as lower potency. In the test with A549, `CC(=O)Nc1cn(C)c(C(=O)Nc2cn(C)c(C(=O)Nc3cn(C)c(C(=O)Nc4cn(C)c(C(=O)NCC[C@@H](NC(=O)OC(C)(C)C)C(=O)Nc5ccc(C(=O)Nc6cn(C)cc6C(=O)Nc6ccc7[nH]c(C(=O)N8CC(CCl)c9c8cc(O)c8ccccc98)cc7c6)n5C)n4)n3)n2)n1` (stereo partly drawn) gave an IC50 of 120 nM.
In the case of `CC(=O)Nc1cn(C)c(C(=O)Nc2cn(C)c(C(=O)Nc3cn(C)c(C(=O)Nc4cn(C)c(C(=O)NCC[C@@H](NC(=O)OC(C)(C)C)C(=O)Nc5ccc(C(=O)Nc6cn(C)cc6C(=O)Nc6cn(C)cc6C(=O)Nc6ccc7[nH]c(C(=O)N8CC(CCl)c9c8cc(O)c8ccccc98)cc7c6)n5C)n4)n3)n2)n1` (stereo partly drawn), the IC50 with A549 was 63 nM.
In the case of `CC(=O)Nc1cn(C)c(C(=O)Nc2cn(C)c(C(=O)Nc3cn(C)c(C(=O)Nc4cn(C)c(C(=O)NCC[C@@H](NC(=O)CCOCCOCCOCCOCCOCCOCCOCCOCCOCCOCCOCCOCCNC(=O)CCCC[C@@H]5SC[C@@H]6NC(=O)N[C@@H]65)C(=O)Nc5ccc(C(=O)Nc6cn(C)cc6C(=O)Nc6cn(C)cc6C(=O)Nc6ccc7[nH]c(C(=O)N8CC(CCl)c9c8cc(O)c8ccccc98)cc7c6)n5C)n4)n3)n2)n1` (stereo partly drawn), the Ratio was found to be 4.19 in the test listed under Bos taurus [1]; 6.96 in the test filed under Bos taurus [2]; 5.11 in the test filed under Bos taurus [3]; 4.94 in the test listed under Bos taurus [4]; 4.45 in the test listed under Bos taurus [5]; 4.34 in the test filed under Bos taurus [6]. Moreover, the Ratio in the test filed under Bos taurus [7] came to 4.13; in the test filed under Bos taurus [8], 3.82; in the test filed under Bos taurus [9], 3.82; in the test filed under Bos taurus [10], 3.79; in the test filed under Bos taurus [11] it was 3.68; in the test filed under Bos taurus [12], 3.64. In addition, the Ratio in the test filed under Bos taurus [13] worked out at 3.63; in the test filed under Bos taurus [14], 3.61; in the test listed under Bos taurus [15], 3.46; in the test filed under Bos taurus [16], 3.37; in the test listed under Bos taurus [17], 3.33; in the test filed under Bos taurus [18] it was 3.28. The Ratio in the test listed under Bos taurus [19] amounted to 3.19; in the test listed under Bos taurus [20], 3.16. In addition, the result in the test listed under Bos taurus [21] was Active.
As to `CC(=O)Nc1cn(C)c(C(=O)Nc2cn(C)c(C(=O)Nc3cn(C)c(C(=O)Nc4cn(C)c(C(=O)NCC[C@@H](NC(=O)CCOCCOCCOCCOCCOCCOCCOCCOCCOCCOCCOCCOCCNC(=O)CCCC[C@@H]5SC[C@@H]6NC(=O)N[C@@H]65)C(=O)Nc5ccc(C(=O)Nc6cn(C)cc6C(=O)Nc6ccc7[nH]c(C(=O)N8CC(CCl)c9c8cc(O)c8ccccc98)cc7c6)n5C)n4)n3)n2)n1` (stereo partly drawn), the Ratio in the test listed under Bos taurus [22] turned out to be 2.69; in the test listed under Bos taurus [23] it was 2.65; in the test filed under Bos taurus [24] it was 2.48; in the test filed under Bos taurus [25] it was 2.44; in the test listed under Bos taurus [26] it was 2.4; in the test listed under Bos taurus [27], 2.24. Further, the Ratio turned out to be 2.21 in the test filed under Bos taurus [28]; 2.17 in the test listed under Bos taurus [29]; 2.12 in the test listed under Bos taurus [30]; 2.07 in the test filed under Bos taurus [1]; 2.06 in the test filed under Bos taurus [31]; 2.06 in the test listed under Bos taurus [32]. Further, the Ratio in the test filed under Bos taurus [33] came out at 2.06; in the test listed under Bos taurus [34] it was 2.05; in the test listed under Bos taurus [35], 2.04; in the test listed under Bos taurus [36], 2.02; in the test filed under Bos taurus [37], 2.02; in the test listed under Bos taurus [2] it was 2.01. Besides, the Ratio in the test filed under Bos taurus [38] and in the test listed under Bos taurus [39] was 2 each time.
